Series [1] deals with MPR^− cells. Nature of the series: TUNEL and annexin V apoptosis assays with grB and AD. Type of series: cell-based, murine. To be noted: 100 ng/ml grB and AD, 3 hr. The procedure: (§1) For the in vitro killing assays, 10 pfu per cell of replication-deficient adenovirus (AD) were added subsequent to grB addition. Analysis of DNA fragmentation by TUNEL analysis has been described previously (Heibein et al., 1999). TUNEL materials (Roche Diagnostics) were used as per the manufacturer's instructions. Phosphatidylserine externalization was measured as previously described (Heibein et al., 1999) using annexin V-FITC (PharMingen). Percent specific TUNEL/annexin V positive cells was calculated as: [(% positive labeling cells with grB and AD-% positive labeling cells without grB and AD)/(100-% positive labeling cells without grB and AD)]×100.

Series [2] has as its system wild-type L cells. Described as above. Type of series: cell-based, murine. The procedure:
as §1

For series [3], the system named is CD-MPR^+ cells. Described as above. Type of series: cell-based, murine L cells transfected with human CD-MPR. To be noted: 100 ng/ml grB and AD, 3 hr. As for the experimental part:
as §1

Series [4] in a line: grB enzymatic activity (ASPase assay). The class given is biochemical, human. An excerpt: Human grB was purified from the cytolytic granules of YT-Indy cells as described previously (Caputo et al., 1999). GrB was derivatized with sulfo-NHS-biotin (Pierce) or OG 488 (Molecular Probes) as per the manufacturer's directions for labeling protein. Derivatized grB was separated from unbound probe by passing the material through a Sephadex G-25 column (HiTrapθ Desalting column, Pharmacia Biotech) with saline or phosphate-buffered saline (PBS) as the buffer. Typically the concentration of unlabeled grB was ˜50 μg/ml, whereas the estimated concentration of derivatized material was ˜5 μg/ml. GrB was assayed for enzymatic activity using an ASPase assay as previously described (Caputo et al., 1993).

Series [5] concerns breast carcinoma cell lines (T47-D, MDA-MB-231, SK-BR-3, MCF-7). Kind of series: grB/AD-mediated apoptosis (TUNEL, annexin V) in carcinoma cell lines. The class given is cell-based, human. As for the experimental part:
Cells were resuspended at 10^6 cells/ml in 0.1% BSA/DMEM. Adenovirus (10 PFU/cell) and granzyme B (grB) were added directly to the cell suspension. Cells were incubated at 37° C. for 3 h. For staurosporine killing, cells were resuspended at 10^6 cells/ml in their normal growth medium and staurosporine (2.5 μM) was added directly to the cell suspension. Cells were incubated at 37° C. for 2, 4 and 8 h. DNA fragmentation was monitored by flow cytometric analysis via the terminal deoxynucleotidyltransferase-mediated dUTP-biotin nick end labeling (TUNEL) method. Flow cytometric analysis was performed on a Becton Dickinson FACScanθ flow cytometer equipped with an argon-ion laser with 15 mW of excitation at 488 nm. Emission wavelengths were detected through the FL1 channel. Data were acquired on 10,000 cells per sample with light scatter signals at linear gain and fluorescence signals at logarithmic gain. Percent specific TUNEL positive cells was calculated as follows: [(% positive labeling cells with grB and AD−% positive labeling cells without grB and AD)/(AD−% positive labeling cells without grB and AD)]×100. Phosphatidylserine externalization was monitored using the ApoAlertθ annexin V apoptosis kit (Clontech) according to the protocol provided by the manufacturer. Flow cytometric analysis was performed on a Becton Dickinson FACScanθ flow cytometer equipped with an argon-ion laser with 15 mW of excitation at 488 nm. Emission wavelengths were detected through the FL1 channel. Data were acquired on 10,000 cells per sample with light scatter signals at linear gain and fluorescence signals at logarithmic gain. Percent specific Annexin V positive cells was calculated as follows: [(% positive labeling cells with grB and AD−% positive labeling cells without grB and AD)/(AD−% positive labeling cells without grB and AD)]×100.

Series [6] deals with CD-MPR^+ cells. Nature of the series: GrB uptake (unpublished findings). Type of series: cell-based, murine L cells transfected with human CD-MPR. To be noted: CD-MPR-overexpressing CD-MPR^+ cells.
The mark [7] stands for this setting: all the carcinoma cell lines, 3 hr.

Turning to “grB: Human serine proteinase granzyme B purified from the cytolytic granules of YT-Indy cells”, the “grB and AD-induced DNA fragmentation” value in series [1] is given as “relatively resistant”. Moreover, the “TUNEL and annexin V positive cells” value is around 100% in series [2] (at later times (data not shown)) and “about 30%” in series [2] (at the time-point of the assay (3 hr)). Besides, the “annexin V binding after grB and AD” value in series [3] and in series [5] (setting [7]) was “did not bind annexin V” each time. For the same substance, the “grB and AD-mediated DNA fragmentation” value in series [3] and in series [5] (setting [7]) was “resistant” throughout. Moreover, the “enzymatic activity of grB” value was “did not lose” in series [4] (grB treated with catalytic subunit of protein phosphatase-1 (data not shown)) and “no effect” in series [4] (grB treated with phosphatase in a phosphate-free buffer). Besides, the “DNA fragmentation or phosphatidylserine externalization” value in series [5] (MCF-7 cells, granzyme B and adenovirus) was “no DNA-fragmentation or phosphatidylserine externalization could be detected”. In series [5] (T47-D cells, granzyme B and adenovirus), the “phosphatidylserine exposure or DNA fragmentation” value is “unable to detect any phosphatidylserine exposure or DNA fragmentation”. Further, the grB uptake result in series [6] is given as “essentially no grB uptake”.

These data come from patent publication US20020168365A1, “Method for modulating granzyme B uptake and for identifying modulators thereof” (priority 2000, published 2002).
